Assay results published in patent EP0433074B1, “Method for treating cardiac malfunction” (THE GENERAL HOSPITAL CORPORATION, priority 1989, dated 1991).

Columns and labels:
[1] = tested on: rat abdominal aortic rings; test: Vascular tension in isolated aortic rings; parameters: species or system Sprague-Dawley rats; details: KCl 20 mM; above resting tension of 1.5 g
Procedure: Experiments were conducted to determine the vasoconstrictive properties of HIF. The protocol for these experiments is described in greater detail in Example V. In general, Sprague-Dawley rats were anesthetized and the abdominal aorta surgically removed. 2 mm vascular rings were attached to a force transducer and bathed in buffer, and tension adjusted to 1.5 g. Tissue viability was documented and vasoconstrictive responses calibrated using known vasoconstrictors such as potassium chloride and norepinephrine. Blood vessels thus prepared were then tested with varing doses of HIF.
Sprague-Dawley rats weighing 250-350 grams were anesthetized with pentobarbital intraperitoneally, the abdominal aorta rapidly excised and dissected free of all loose connective tissue in cold Krebs-Henseleit bicarbonate buffer of the following composition, mM: NaCl, 118.3; KCl, 4.7; MgSo₄, 1.2; KH₂PO₄, 1.2; CaCl₂, 2.5; NaHCO₃, 25.0; Na-EDTA, 0.016; and glucose, 11.1. 2-3 mm (length) vascular rings were excised, attached to a force transducer and bathed in a water jacketed (37°C) organ chamber containing 5 ml of the above buffer gassed with 95% O₂ and 5% CO₂. […] force measurements were obtained with a Grass force displacement transducer attached to a Grass 79D polygraph DC amplifier, and recorded with a two-channel Kipp Zonen recorder. […]

[2] = tested on: neonatal rat cardiac myocytes; test: ⁸⁶Rb⁺ influx (Na⁺ pump activity) in cultured cardiac cells; type: cell-based; details: ouabain 5 mM, 20 min preincubation
Procedure: Na⁺ pump activity was estimated in the cultured cardiac cells as the difference in ⁸⁶Rb⁺ uptake observed in the absence and presence of 5 mM ouabain, following the method of Panet et al (Panet, R., et al., J. Memb. Biol., 70:165-169 (1982)). To insure saturation binding, myocytes were preincubated for 20 minutes with HIF (2 unit/ml) or ouabain (5 mM) or both prior to addition of ⁸⁶Rb⁺ to run the 10 minute flux. Myocyte monolayers were washed with HEPES buffer solution (final concentrations, mM: NaCl 150, RbCl 5, HEPES-Tris 10 (pH7.0) , CaCl₂ 1, MgCl₂ 5, glucose 10), and the uptake initiated by covering over with 0.5 ml of same solution pre-warmed to 37°C and containing 2 uCi ⁸⁶RbCl. […] The cells were lysed with 0.6 ml of 0.1 N NaOH containing 0.1% (w/v) sodium dodecylsulfate, and the radioactivity counted in Instagel (Packard) scintillation medium.
The concentration dependence of HIF inhibition was determined by preincubating cells with HIF at 0.5 units/ml, 0.8 units/ml, 1 unit/ml, 2 units/ml and 4 units/ml concentration for 20 min. ⁸⁶RbCl (2 uCi/well) was then added to run the flux.

cardiac myocytes = test: Myocyte contractility (amplitude of systolic motion, beating frequency), phase contrast video motion detector; type: cell-based, rat
Procedure: In general, the amplitude of contraction (i.e., degree of positive inotropy) was measured in single, beating myocytes as the amplitude of systolic motion (ASM) using a phase contrast video motion detector system. The same detector system was used to measure toxicity, which is evidenced as a decrease in ASM, a change in the position of maximal relaxation (MR), and an increase in beating frequency.
(§1) Myocardial cells were isolated from ventrical fragments of the hearts of 1-day old Sprague-Dawley rats by serial trypsinizations in a Ca²⁺ and Mg²⁺-free Hanks Buffered Salt Solution (HBSS) as previously described (Yagev, S., et al., In Vitro, 20:893-898 (1984)). Trypsinized cells were decanted into HamF10 medium containing 20% serum and antibiotics and centrifuged at 1000 r.p.m. for 10 minutes. The cell pellet was resuspended in HamF10 medium containing fetal calf serum and 10% horse serum with 0.1% penicillin-streptomycin, and diluted to a concentration of 5 x 10⁵ cells/ml. For measurements of cytosolic free calcium concentration ([Ca²⁺]i), the cells were plated on rectangular glass coverslips (13 x 30 mm) and for measurements of cell contractility, plated on circular glass coverslips (12 mm), and both types of coverslips placed inside petri dishes. For measurements of ⁸⁶Rb⁺ uptake cells were plated in petri dishes (1 - 1.5 x 10⁶ cells/35mm dish). All cultures were incubated in humidified 5% CO₂, 95% air at 37°C.
Contractility, determined as amplitude of systolic cell motion (ASM), and beating frequency were measured in individual cells using a phase contrast microscope video motion detector system according to the method of Barry, et al. (Barry, W.H., et al., Circ. Res., 56:231-241 (1985)). A glass coverslip with attached cultured myocytes was placed in a chamber provided with inlet and exit ports for medium perfusion. The chamber was enclosed in a Lucite box at 37°C and placed on the stage of an inverted phase contrast microscope. The cells were covered with 1 ml medium containing HIF or ouabain. During continuous perfusion, medium bathing a cell in the center of a coverslip exchanged with a time constant of 15 seconds at a flow rate of 0.96 ml/minutes. Image was magnified using a 40x objective, and motion monitored by a low-light-level TV camera attached to the microscope and calibrated with 262 raster lines. […] The analog voltage output from the motion detector is filtered at low pass filter and calibrated to indicate actual um of motion, and the derivative is obtained electronically and recorded as velocity of motion in um/sec. […] The changes in contractility induced by ouabain or HIF were calculated in comparison with the contractility of the same cells before addition of ouabain or HIF.

[3] = tested on: cultured cardiac myocytes; test: Cytosolic free Ca²⁺ measured with fura-2 in cultured cardiac myocytes; type: cell-based, rat; details: ouabain 10^-6 M, steady state, control 138±3
Procedure: as §1, with “For measurements of ⁸⁶Rb⁺ uptake cells were plated in petri dishes (1 - 1.5 x 10⁶ cells/35mm dish). All cultures were incubated in humidified 5% CO₂, 95% air at 37°C.” left out
Changes in [Ca²⁺] i were detected using the fluorescent probe, fura-2 (Grynkiewicz, G., et al., J. Biol. Chem., 260:3440-3450 (1985)). […] The fluorescence was continuously recorded using a PTI DeltaScan 1 spectrofluorometer. […] Values of [Ca²⁺]i were calculated from the ratio R = F₃₄₀/F₃₈₀ [formula] […] Rmax and Rmin were determined in separate experiments using digitonin to equilibrate [Ca²⁺]i with ambient [Ca²⁺] […] Background autofluorescence was measured in unloaded cells and substracted from all measurements.

SMILES | Change in Tension in Rat Aorta, % increase [1] [%] | inhibition at 5000 µM ([2]; Rattus norvegicus, read-out: decrease of total ⁸⁶Rb⁺ uptake) [%] | total ⁸⁶Rb⁺ uptake ([2]; 10 min flux, control 810 nmol/mg protein) [nmol/mg] | activation at 0.5 µM (cardiac myocytes; Rattus norvegicus, ouabain 5x10^-7 M, read-out: ASM, % increase) [%] | inhibition at 0.5 µM (cardiac myocytes; Rattus norvegicus, ouabain 5x10^-7 M, read-out: Rate, % decrease) [%] | toxicity on contracting myocytes (decrease in ASM, elevation in position of MR, increase in beating frequency) (cardiac myocytes; ouabain 1 uM) | ASM, % increase (cardiac myocytes; ouabain 5x10^-7 M, listed as Ou) [%] | [Ca²⁺]i [3] [nM] | [Ca²⁺]i ([3]; listed as Ouabain) [nM]
[Cl-].[K+] [KCl, potassium chloride] | 20 |  |  |  |  |  |  |  | 
C[C@@H]1O[C@@H](O[C@H]2C[C@@H](O)[C@]3(CO)[C@H]4[C@H](O)C[C@]5(C)[C@@H](C6=CC(=O)OC6)CC[C@]5(O)[C@@H]4CC[C@]3(O)C2)[C@H](O)[C@H](O)[C@H]1O [ouabain] |  | 74 | 210 | 41 | 23 ± 2 | toxic range | 41±3 | 287 ± 15 | 287 ± 15
